US6372733B1, “Hexahydro-5-imino-1,4-1,4-thiazepine derivatives as inhibitors of nitric oxide synthases” (Merck & Co., Inc., priority 1995, dated 2002)
Where a name gives a salt, the structure may show the parent alone. Read-outs that look alike come from different tables or passages of the source.

Assays:
Type in all cases: biochemical
iNOS = iNOS (Homo sapiens, UniProt P35228); assay: Assay Protocol for NOS Activity: formation of L-[3H]Citrulline from L-[3H]Arginine, iNOS
Procedure: (§1) NOS activity is measured as the formation of L-[2,3,4,5-^3H]Citrulline from L-[2,3,4,5-^3H]Arginine. The incubation buffer (100 uL) contained; 100 mM TES, pH 7.5, 5 μM FAD, 5 μM FMN, 10 μM BH4, 0.5 mM NADPH, 0.5 mM DTT, 0.5 mg/mL BSA, 2 mM CaC12, 10 ug/mL calmodulin (bovine), 1 μM L-Arg, 0.2 uCi L-[2,3,4,5-^3H]Arg, and the inhibitor in aqueous DMSO (max. 5%). The reaction is initiated by addition of enzyme. Incubations are performed at room temperature for 30 minutes and stopped by the addition of an equal volume of quenching buffer consisting of 200 mM sodium citrate, pH 2.2, 0.02% sodium azide. Reaction products are separated by passing through a cation exchange resin and quantitated as cpm by scintillation counting.

ecNOS = ecNOS (Homo sapiens, UniProt P29474); assay: Assay Protocol for NOS Activity: formation of L-[3H]Citrulline from L-[3H]Arginine, ecNOS
Procedure: as §1

ncNOS = ncNOS (Homo sapiens, UniProt P29475); assay: Assay Protocol for NOS Activity: formation of L-[3H]Citrulline from L-[3H]Arginine, ncNOS
Procedure: as §1

[1] = 1 μM L-Arg, room temperature, 30 minutes, read-out: iNOS (IC50)
[2] = 1 μM L-Arg, room temperature, 30 minutes, read-out: ecNOS (IC50)
[3] = 1 μM L-Arg, room temperature, 30 minutes, read-out: ncNOS (IC50)

Row | SMILES | IC50 (iNOS; [1]) [µM] | IC50 (ecNOS; [2]) [µM] | IC50 (ncNOS; [3]) [µM] | IC50 (iNOS) [µM] | IC50 (ecNOS) [µM] | IC50 (ncNOS) [µM]
1 | CC1CSCCN=C1N (stereo not drawn) [Example 12, Hexahydro-5-imino-6-methyl-1,4-thiazepine Hydrochloride] | > 50 | < 50 | < 10 |  |  | 
2 | NC1=NCCOCC1 [Example 3, Hexahydro-5-imino-1,4-oxazepine Hydrochloride.] | < 50 | < 50 | < 10 |  |  | 
3 | CCC1CSCCC(N)=N1 (stereo not drawn) [Example 14, Hexahydro-5-imino-3-ethyl-1,4-thiazepine Hydrochloride] | < 1 | < 50 | < 10 |  |  | 
4 | CC1CN=C(N)CCS1 (stereo not drawn) [Example 7, Hexahydro-5-imino-2-methyl-1,4-thiazepine Hydrochloride] | < 10 | < 10 | < 1 |  |  | 
5 | CCC[C@@H]1CSCCC(=N)N1 [Example 19, Hexahydro-5-imino-3(R)-propyl-1,4-thiazepine Acetic Acid Salt] |  |  |  | < 10 | < 50 | < 10
6 | CC(C)CC1CSCCC(N)=N1 (stereo not drawn) [Example 11, Hexahydro-5-imino-3-(2-methyl-propyl)-1,4-thiazepine Hydrochloride] | < 1 | > 50 | < 10 |  |  | 
7 | NC1=NCCNCC1 [Example 1, Hexahydro-5-imino-(1H-1,4-diazepine Dihydrochloride] | > 50 | > 50 | > 50 |  |  | 
8 | CCCC1CSCCNC1=N (stereo not drawn) [Example 5, Hexahydro-5-imino-6-propyl-1,4-thiazepine Hydrochloride] | > 50 | > 50 | > 50 |  |  | 
9 | CC(C)CC1CSCCNC1=N (stereo not drawn) [Example 10, Hexahydro-5-imino-6-(2-methyl-propyl)-1,4-thiazepine Hydrochloride] | < 50 | > 50 | > 50 |  |  | 
10 | NC1=NCCSCC1 [Example 2, Hexahydro-5-imino-1,4-thiazepine Hydrochloride] | < 10 | > 10 | < 10 |  |  | 
11 | CCCC1CSCCC(N)=N1 (stereo not drawn) [Example 4, Hexahydro-5-imino-3-propyl-1,4-thiazepine Hydrochloride] |  |  |  | < 1 | < 50 | < 10
12 | CCC[C@H]1CSCCC(N)=N1 [Example 18, Hexahydro-5-imino-3(S)-propyl-1,4-thiazepine, Acetic Acid Salt] |  |  |  | < 1 | < 10 | < 1
13 | C=C(C)CC1CSCCC(=N)N1 (stereo not drawn) [Example 16, Hexahydro-5-imino-3-(2-methyl-3-propenyl)-1,4-thiazepine Hydrochloride.] | < 1 | < 50 | < 10 |  |  | 
14 | N=C1CCS[C@H]2CCCC[C@@H]2N1 (racemic) [Example 17, (±)-trans-Decahydro-4-imino-benzo[b]-1,4-thiazepine Acetic Acid Salt] | > 50 | > 50 | > 50 |  |  | 
15 | CC(C)=CCC1CSCCC(=N)N1 (stereo not drawn) [Example 9, Hexahydro-5-imino-3-(3-methyl-2-n-butenyl)-1,4-thiazepine Hydrochloride] | < 1 | > 50 | < 50 |  |  | 
16 | CC(C)=CCC1CSCCNC1=N (stereo not drawn) [Example 8, Hexahydro-5-imino-6-(3-methyl-2-n-butenyl)-1,4-thiazepine Hydrochloride] | > 50 | > 50 | > 50 |  |  | 
17 | CC1CSCCC(N)=N1 (stereo not drawn) [Example 13, Hexahydro-5-imino-3-methyl-1,4-thiazepine Hydrochloride] | < 1 | < 10 | < 10 |  |  | 
18 | CC1CC(N)=NCCS1 (stereo not drawn) [Example 6, Hexahydro-5-imino-7-methyl-1,4-thiazepine Hydrochloride] | < 10 | < 10 | < 1 |  |  | 
19 | CCCCC1CSCCC(N)=N1 (stereo not drawn) [Example 15, Hexahydro-5-imino-3-butyl-1,4-thiazepine. Hydrochloride] | < 1 | > 50 | < 10 |  |  | 
20 | CN1CCN=C(N)CC1 [Example 20, Hexahydro-5-imino-1-methyl-1H-1,4-diazepine Hydrochloride.] | < 50 | > 50 | > 50 |  |  | 
